The text below walks through data of patent US5990101A, “Carbapenem derivatives” (Meiji Seika Kabushiki Kaisha, priority 1995, dated 1999).

The nature of series [1]: Acute toxicity. The following applies: three ICR male mice, 1500 mg/kg i.v. The format is in vivo.
Series [2] has as its system Ps. aeruginosa M-0148. Kind of series: Antibacterial activity (MIC, two-fold method), Ps. aeruginosa M-0148. Also noted: unit not given here. It is filed as cell-based.
In series [3] the test system is E. coli 255. Description: Antibacterial activity (MIC, two-fold method), E. coli 255. The format is cell-based. Also noted: unit not given here.
In series [4] the test system is E. cloacae GN747. Kind of series: Antibacterial activity (MIC, two-fold method), E. cloacae GN747. It is filed as cell-based. The arrangement: unit not given here.
Series [5] deals with Ps. aeruginosa E-2. Kind of series: Antibacterial activity (MIC, two-fold method), Ps. aeruginosa E-2. It is filed as cell-based. Also noted: unit not given here.
Series [6] has as its system E. faecalis W-73. Kind of series: Antibacterial activity (MIC, two-fold method), E. faecalis W-73. It is filed as cell-based. Also noted: unit not given here.
In series [7] the test system is C. freudii GN346. Description: Antibacterial activity (MIC, two-fold method), C. freudii GN346. Also noted: unit not given here. The format is cell-based.
In series [8] the test system is E. coli NIHJ JC-2. Kind of series: Antibacterial activity (MIC, two-fold method), E. coli NIHJ JC-2. It is filed as cell-based. Also noted: unit not given here.
For series [9], the system named is K. pneumoniae PC1602. Description: Antibacterial activity (MIC, two-fold method), K. pneumoniae PC1602. It is filed as cell-based. The arrangement: unit not given here.
In series [10] the test system is P. vulgaris GN76. Description: Antibacterial activity (MIC, two-fold method), P. vulgaris GN76. It is filed as cell-based. The arrangement: unit not given here.
Series [11] has as its system S. aureus 209P JC-1. Kind of series: Antibacterial activity (MIC, two-fold method), S. aureus 209P JC-1. It is filed as cell-based. Also noted: unit not given here.
In series [12] the test system is S. aureus M126. Description: Antibacterial activity (MIC, two-fold method), S. aureus M126 (methicillin-resistant). The format is cell-based. Also noted: unit not given here. The source says: *: Methicillinresistant Staphylococcus aureus-
For series [13], the system named is S. marcescens GN10857. Kind of series: Antibacterial activity (MIC, two-fold method), S. marcescens GN10857. Also noted: unit not given here. The format is cell-based.
The test system of series [14] is renal dehydropeptidase-1 (DHP-1). The note with it: background art; cited from earlier work.

As for `C[C@@H](O)[C@H]1C(=O)N2C(C(=O)[O-])=C(C[n+]3cc4scc(CNS(N)(=O)=O)n4c3)[C@H](C)[C@H]12` [Example 14, (1S,5R,6S)-6-[(1R)-1-hydroxyethyl]-2-[3-(aminosulfonyl)aminomethylimidazo[5,1-b]thiazolium-6-yl]methyl-1-methyl-1-carbapen-2-em-3-carboxylate], the “survival (acute toxicity)” value in series [1] was “All the animal survived”.

`C[C@@H](O)[C@H]1C(=O)N2C(C(=O)[O-])=C(Cn3cc4sc(C(N)=O)c[n+]4c3)[C@H](C)[C@H]12` [Example 68, (1S,5R,6S)-6-[(1R)-1-hydroxyethyl]-2-(2-carbamoylimidazo[5,1-b]thiazolium-6-yl)methyl-1-methyl-1-carbapen-2-em-3-carboxylate]: the MIC was found to be 3.13 in series [2]; 0.20 in [3]; 0.20 in series [4]; 3.13 in series [5]; 6.25 in [6]; 0.10 in series [7]. For the same molecule, the MIC in series [8] is recorded as 0.20; in series [9] it was 0.20; in series [10] it was 0.78; in series [11], less than 0.025; in series [12], 6.25; in series [13], 0.39.

Regarding `C[C@@H](O)[C@H]1C(=O)N2C(C(=O)O)=C(SCCN=CN)C[C@H]12` [Imipenem], in series [14], the “stability against renal dehydropeptidase-1 (DHP-1)” value is on record as “instability”.
